The values that follow come from PubChem BioAssay (NCI).

Molecules are shown by their SMILES.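 Growth conditions: 96-well plates. Treatment: test compound, 48 hours, 5 concentrations. Analysis: linear interpolation between bracketing concentrations; unreached endpoints set to highest concentration. TGI: concentration producing complete growth inhibition.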

Experiment in all cases: growth of human tumour cells (NCI), 48 h
Experiment [1] has as its system OVCAR-3 ovarian.
The test system of experiment [2] is OVCAR-4 ovarian.
The subject of experiment [3] is SNB-75 CNS.
Experiment [4] relates to HT29 colon.
Experiment [5] has as its system SK-MEL-5 melanoma.
Experiment [6] relates to SK-OV-3 ovarian.
Experiment [7] has as its system U251 CNS.
The test system of experiment [8] is RPMI-8226 leukemia.
Experiment [9] concerns EKVX NSCLC.
The subject of experiment [10] is HOP-92 NSCLC.
Experiment [11] has as its system COLO 205 colon.
The test system of experiment [12] is MALME-3M melanoma.
For experiment [13], the system named is SR leukemia.

For `Cc1ccc(Sc2ccccc2N)cc1`, the TGI in experiment [1] is greater than 100 µM; in experiment [2] it was greater than 100 µM; in experiment [3] it was greater than 100 µM; in experiment [4], greater than 100 µM; in [5] it was 45.5 µM; in [6] it was greater than 100 µM. Moreover, the TGI in [7] was greater than 100 µM; in [8], 53.4 µM; in experiment [9] it was greater than 100 µM; in experiment [10], 54.7 µM; in experiment [11], greater than 100 µM; in experiment [12], greater than 100 µM.

As to `COc1ccc(/C=C/C(=O)c2sc(-c3cccnc3)nc2C)cc1`, the TGI in experiment [1] was 88.3 µM; in [3] it was greater than 100 µM; in [4], greater than 100 µM; in [5] it was greater than 100 µM; in [6], greater than 100 µM; in experiment [7], greater than 100 µM. The TGI in [8] is 26.2 µM; in experiment [9], greater than 100 µM; in [10] it was greater than 100 µM; in experiment [11], greater than 100 µM; in [12] it was greater than 100 µM.

Consider `CC(C)c1ccc(/C=C/c2cc(C(=O)NNC(=O)NC3CCCCC3)nc(=S)[nH]2)cc1`, for which the TGI in experiment [1], in experiment [2], in [3], in experiment [4], in experiment [5] and in experiment [6] was greater than 100 µM each time. Further, the TGI in experiment [7], in experiment [8], in experiment [9], in experiment [10], in experiment [11] and in experiment [12] was greater than 100 µM throughout.

Take `O=C(O)c1ccc([C@@H]2C(=O)N(O)[C@@H]3C=CC[C@@H]32)cc1`: the TGI in experiment [1], in experiment [3], in [4], in [5], in experiment [6] and in experiment [8] was greater than 100 µM each time. Besides, the TGI in experiment [9], in experiment [11] and in experiment [12] was greater than 100 µM each time.

As for `CCOc1cccc(-c2cc(=O)c3cc4c(cc3[nH]2)OCO4)c1`, the TGI in [1] was 3.88 µM; in experiment [2] it was greater than 100 µM; in experiment [3], 36.1 µM; in [4], 0.593 µM; in experiment [5], greater than 100 µM; in [7], 3.44 µM. For the same molecule, the TGI in experiment [8] is greater than 100 µM; in experiment [9] it was greater than 100 µM; in [10] it was 6.04 µM; in experiment [12], greater than 75.1 µM.

`C=CCCCC1(C)CCNC1=S` (stereo not drawn): the TGI in experiment [1], in experiment [2], in experiment [3], in [4], in [5] and in experiment [6] was greater than 100 µM in each case. Also, the TGI in [7], in [8], in experiment [9], in experiment [10] and in experiment [11] was greater than 100 µM in each case.

With `CC1=CC(=O)N(n2c(-c3ccccc3)n[nH]c2=O)C1=O`, the TGI in [1], in experiment [2], in experiment [3], in [4], in experiment [5] and in experiment [6] was greater than 100 µM in each case. Besides, the TGI in [7], in experiment [8], in [9], in experiment [11] and in [12] was greater than 100 µM in each case.

Consider `CC(C)OP(=O)(OC(C)C)C(=NCCN=C(NNc1ccccc1[N+](=O)[O-])P(=O)(OC(C)C)OC(C)C)NNc1ccccc1[N+](=O)[O-]`, for which the TGI in experiment [1] is greater than 100 µM; in experiment [2] it was greater than 100 µM; in [3], greater than 100 µM; in [7], 83.4 µM; in [8], greater than 100 µM; in experiment [9] it was greater than 100 µM. Also, the TGI is greater than 100 µM in [10], 54.9 µM in experiment [11] and 54.5 µM in experiment [12].

As for `CC1=C(C(=O)CC(=O)C(=O)Nc2ccc(C)c(C)c2)Sc2ccccc2N1`, the TGI in experiment [1], in [2], in experiment [3], in experiment [4], in [5] and in [6] was greater than 100 µM in each case. Also, the TGI in experiment [7], in [8], in experiment [9], in [10], in [11] and in experiment [12] was greater than 100 µM in each case.

`COc1ccc2c(c1)[n+]([O-])c(/C(C)=N/NC(=O)c1ccccc1O)c(C)[n+]2[O-]`: the TGI in experiment [1], in [2], in [4], in experiment [5], in experiment [6] and in experiment [7] was greater than 100 µM throughout. For the same molecule, the TGI in [8], in [9], in [10] and in [12] was greater than 100 µM throughout.

Turning to `CCOC(=O)C1SC(=Nc2ccc(Cl)cc2Cl)N=C1C` (stereo not drawn), the TGI in experiment [1] is greater than 100 µM; in experiment [2], 70.1 µM; in [3], 82 µM; in experiment [4], greater than 100 µM; in [5] it was greater than 100 µM; in [7], greater than 100 µM. Also, the TGI in experiment [9] is greater than 100 µM; in [10], 62.3 µM; in experiment [11], greater than 100 µM; in experiment [12], greater than 100 µM.

On to `NC(=O)CCC(NC(=O)c1c2ccccc2nc2ccccc12)C(=O)O` (stereo not drawn), for which the TGI in experiment [1], in experiment [2], in [3], in [4], in experiment [5] and in experiment [6] was greater than 100 µM in each case. Moreover, the TGI in experiment [7], in [8], in experiment [9], in [10], in [11] and in experiment [12] was greater than 100 µM throughout.

With `CCOC(=O)C(NC(=O)CC)(Nc1ccc(F)cc1F)C(F)(F)F` (stereo not drawn), the TGI in [3], in [4], in experiment [5], in experiment [6], in experiment [7] and in experiment [8] was greater than 100 µM throughout. The TGI in experiment [13], in experiment [9] and in [11] was greater than 100 µM throughout.
